Laboratory results: patent US10329304B2, “Compounds and methods for inhibition of hedgehog signaling and phosphodiesterase” (Vanderbilt University, priority 2014, dated 2019)
pEC50, pIC50: −log10 of the molar value.

Columns and labels:
[1] = test system: Hedgehog signaling (TM3-Gli-Luc); assay: TM3-Gli-Luc luciferase reporter assay stimulated with 20 nM SAG; format: cell-based; details: Table 9A; read-out: TM3 G8 Luciferase EC 50
Experimental: TM3-Gli-Luc cells were maintained on sterile 0.1% gelatin (from porcine skin, Type A, prepared in MilliQ water, autoclaved, then sterile-filtered) in 1:1 Dulbecco's Modified Eagle Medium (DMEM)/F12 supplemented with 5% horse serum, 2.5% fetal bovine serum (FBS), and 15 mM HEPES, hereafter referred to as TM3 Culture Medium. For small molecule evaluation, TM3-Gli-Luc cells were assayed on 0.1% gelatin in DMEM/F12 supplemented with 2.5% FBS and 15 mM HEPES, hereafter referred to as TM3Luc Medium. Sufu^−/− cells were maintained in DMEM supplemented with 4.5 g/L D-glucose, L-glutamine, 25 mM HEPES, and 10% FBS, hereafter referred to as D10 FBS. For small molecule evaluation, Sufu^−/− cells were assayed in DMEM supplemented with 4.5 g/L D-glucose, L-glutamine, 25 mM HEPES, and 0.5% FBS, hereafter referred to as D0.5 FBS. All cells were cultured at 37° C. with a 5% CO2 atmosphere.
On the day of cell plating, 96-well plates were coated with 50 μL/well of sterile 0.1% gelatin for 5 minutes then aspirated and replaced with 50 μL/well of TM3 Culture Medium. TM3-Gli-Luc cells were seeded at a density of 5,000 cells/well in TM3 Culture Medium and incubated for 24 hours. A master mix of 20 nM SAG in TM3Luc Medium was prepared, and small molecule solutions were prepared by adding the desired amount of compound from 10 mM DMSO stock to TM3Luc Medium containing 20 nM SAG. Negative control was prepared by adding an equi-volume amount of DMSO as compared to small molecule treated conditions to TM3Luc Medium not containing SAG. Cell plating medium was aspirated and replaced with 100 μL/well of prepared small molecule-containing media, and plates were incubated for 48 hours before proceeding to luciferase activity and cell viability reading.
TM3Luc Medium from compound treated plates was aspirated and replaced with 82 μL/well of Glo Lysis Buffer (Promega, Madison, Wis., USA), and plates were shaken at 300 rpm and room temperature for 12 minutes. Lysate was split between two white 96-well plates, 45 μL/well and 25 μL/well for luciferase reading and cell viability respectively. For luciferase activity monitoring, 45 μL/well of Steady Glo (Promega, Madison, Wis., USA) was added to 45 μL/well of cell lysate, incubated at room temperature for 5 minutes, then luminescence was measured on a Turner Biosystems Modulus Microplate Reader (Sunnyvale, Calif., USA) with an integration time of 0.5 seconds. For cell viability measurement, 25 μL/well of Cell Titer Glo (Promega, Madison, Wis., USA) (prepared by 1:10 dilution with Glo Lysis Buffer) was added to 25 μL/well of cell lysate, incubated at room temperature for 5 minutes, then luminescence was measured as above.
Luciferase activity data (Steady Glo) was divided by corresponding cell viability data (Cell Titer Glo) to arrive at a live cell number-normalized luciferase activity reading. The average of negative control data (DMSO treated) was subtracted from all wells, and percent activity was calculated by dividing all wells by the positive control (SAG treated) average. […] At least two independent assays tested on separate days were averaged to provide EC50±standard error of the mean.

Gli1 mRNA = assay: Hh % Inh.: SAG-induced Gli1 expression in C3H10T½ cells (qPCR); format: cell-based; details: Mus musculus, C3H 10T1/2, SAG-induced (100 nM), 24 hours; for inhibition at 10 µM: 10 pM [sic], read-out: C3H10T1/2 qPCR, Gh1 mRNA % Inh., 10 pM; for inhibition at 1 µM: 1 pM [sic], read-out: C3H10T1/2 qPCR, Gh1 mRNA % Inh., 1 pM
Experimental: Compounds are dosed from 10 mM DMSO stock solutions, and mRNA is isolated after 24 hours of compound treatment. mRNA is reverse transcribed to produce cDNA which is quantified by quantitative polymerase chain reaction (qPCR) in triplicate and levels are normalized to GAPDH levels. Data is presented as percent inhibition compared to positive control (SAG).

zebrafish embryos = assay: Zebrafish embryo phenotypic assay (ZF); format: in vivo; details: wild-type embryonic zebrafish, dosed 5 hpf
Experimental: All zebrafish experiments were approved by Vanderbilt University Institutional Animal Care and Use Committee. Wild-type zebrafish of AB strain were maintained using standard protocols. Chemical screen for small molecules was performed as previously described. Briefly, pairs of zebrafish were mated, and fertilized eggs were arrayed in 96-well microtiter plates (5 embryos/well) containing 250 μl E3 water. At ˜4-hpf, small molecule library from Vanderbilt High Throughput Screening Facility was added to each well to the final concentration of 5 μM. Embryos were incubated at 28.5° C. until 24 and 48-hpf, when they were examined for gross morphologic changes indicative of disruption in embryonic patterning. A total of ˜30,000 compounds were screened.
ZF refers to wild-type embryonic zebrafish phenotypic assay involving dosing n=˜10 embryos in E3 egg water with compound from either a stock of 1 mM or 10 mM in DMSO at 5 hours post-fertilization and observing at 24, 48, and 72 hours post-fertilization.

[2] = test system: Hedgehog signaling (Gli-Luc reporter); assay: Hh Gli-Luciferase reporter assay in Shh-Light2 cells; format: cell-based, mouse; details: for pEC50: Mus musculus, Shh Light2, Table 9B, read-out: Shh Light2 Luc EC50
Experimental: For Hh signaling assays, Shh-Light2 cells stably transfected with Gli-Luciferase reporter construct were used along with Shh-conditioned media, as previously described^7. Alternatively, 3 μM purmorphamine or 20 nM Smoothened agonist (SAG) (Santa Cruz Biotechnology, Santa Cruz, Calif.) was used to induce Hh signaling. Reporter cells were seeded in 96-well plates and incubated overnight with the various concentrations of eggmanone and Shh-conditioned media. To assess the effects of overexpression of Gli-2, PDE4D3 and DN-PDE4D3 on Hh signaling, mammalian expression vectors containing these constructs were transfected into Shh-Light2 cells in 96-well plates using Fugene6 (Roche), according to manufacturer's instructions. The transfected or Shh-stimulated cells were incubated overnight with the various concentrations of compound. The cells were then lysed, and cell extracts were subjected to Steady-Glo luciferase assay (Promega) according to manufacturer's instructions. The results were normalized to cell titer, as determined using Cell Titer-Glo luminescence assay (Promega).

PDE4D3 = molecular target: T1, PDE4D3 (Homo sapiens, UniProt Q08499); assay: In vitro PDE assay; format: biochemical; details: Table 9A
T1 construct: purchased BPS Biosciences (San Diego, Calif.); kinetic studies by Millipore (St. Louis, Mo.)
Experimental: In vitro PDE profiling and dose-response assays were performed by BPS Biosciences (San Diego, Calif.). Kinetic Mechanism of inhibition studies were conducted by Millipore (St. Louis, Mo.). In brief, the PDE assay measures fluorescent polarization of FAM-AMP as FAM-cAMP is converted to FAM-AMP by PDE), the binding agent.
A series of dilutions of the test compound were prepared with 10% DMSO in assay buffer and 5 μl of the dilution was added to a 50 μl reaction so that the final concentration of DMSO is 1% in all of reactions. All of the PDE enzymatic reactions were conducted in duplicate at room temperature for 60 minutes in a 50 μl mixture containing PDE assay buffer (10 mM Tris-HCl, pH7.4, 10 mM MaCl2, 0.05% Tween 20), 100 nM FAM-cAMP, a PDE enzyme and a test compound.
After the enzymatic reaction, 100 μl of a binding solution (1:100 dilution of the binding agent, which contains the nano beads that recognize FAM-AMP, with the binding agent diluent) was added to each reaction and the reaction was performed at room temperature for 60 minutes. Fluorescence intensity was measured at an excitation of 485 nm and an emission of 528 nm using a Tecan Infinite M1000 microplate reader. Assays done by Millipore were conducted similarly with changes noted below: […]

T1 sequence (Q08499 1-673 isoform Q08499-2): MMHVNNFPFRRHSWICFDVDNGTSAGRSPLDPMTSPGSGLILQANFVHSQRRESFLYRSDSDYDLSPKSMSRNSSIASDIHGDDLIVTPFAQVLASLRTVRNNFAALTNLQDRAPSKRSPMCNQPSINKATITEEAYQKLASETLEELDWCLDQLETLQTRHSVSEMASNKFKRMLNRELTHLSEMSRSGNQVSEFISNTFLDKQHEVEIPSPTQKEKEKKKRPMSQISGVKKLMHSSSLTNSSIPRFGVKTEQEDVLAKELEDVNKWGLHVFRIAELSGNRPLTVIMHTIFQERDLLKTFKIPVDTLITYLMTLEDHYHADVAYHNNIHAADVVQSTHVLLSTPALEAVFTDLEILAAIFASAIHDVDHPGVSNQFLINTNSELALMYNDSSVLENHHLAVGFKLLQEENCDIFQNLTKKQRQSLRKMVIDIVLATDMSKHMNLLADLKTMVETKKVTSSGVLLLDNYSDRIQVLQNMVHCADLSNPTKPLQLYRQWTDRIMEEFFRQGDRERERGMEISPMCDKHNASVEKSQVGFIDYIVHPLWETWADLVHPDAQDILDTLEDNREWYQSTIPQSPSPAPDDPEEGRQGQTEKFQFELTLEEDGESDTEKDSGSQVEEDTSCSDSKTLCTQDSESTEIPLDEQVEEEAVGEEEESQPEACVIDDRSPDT

Structure (SMILES)	pEC50 [1]	inhibition at 10 µM (Gli1 mRNA) [%]	ZF Phenotype EC100 (zebrafish embryos) [µM]	other results
C=C(C)Cn1c(SCC(=O)c2cccnc2)nc2sc3c(c2c1=O)CCCC3 [JEH-3-045-3]	4.98	43.6	–	–
C=C(C)Cn1c(SCC(=O)c2cccs2)nc2ncccc2c1=O [JEH-1-146-2]	4.95	28.7	>50	–
O=C(CSc1nc2sc3c(c2c(=O)n1Cc1ccccc1)CCCC3)c1cccs1 [JEH-3-058-2]	–	18.3	–	–
CC(C)n1c(SCC(=O)c2cccs2)nc2sc3c(c2c1=O)CCCC3 [JEH-3-031]	–	101	–	inhibition at 1 µM (Gli1 mRNA): 11.7%
C=C(C)Cn1c(SC)nc2sc3c(c2c1=O)CCCC3 [JEH-3-146]	4.62	83.9	–	inhibition at 1 µM (Gli1 mRNA): 48.4%
C=C(C)Cn1c(SCC(=O)c2cccs2)nc2ccccc2c1=O [JEH-1-146-1]	< 4.30	68.9	10	–
C=C(C)Cn1c(SC)nc2sc3c(c2c1=O)CCCC3 [HI272]	–	–	–	pEC50 [2]: < 5.00
CC(C)(C)Cn1c(SCC(=O)c2cccs2)nc2sc3c(c2c1=O)CCCC3 [JEH-3-056-2]	–	84.8	–	inhibition at 1 µM (Gli1 mRNA): 13.1%
C=CCn1c(SCC(=O)c2ccc(-c3ccccc3)cc2)nc2sc3c(c2c1=O)CCCC3 [Formula (20)]	–	–	–	Hh Inhibition Assay (EC50, μM) ([2]; Table 8): Inactive
C=CCn1c(SCC(=O)c2ccc(F)cc2)nc2sc3c(c2c1=O)CCCC3 [HI682]	–	–	–	pEC50 [2]: < 5.00
O=C(CSc1nc2sc3c(c2c(=O)n1CC1CCC1)CCCC3)c1cccs1 [JEH-3-056-1]	5.15	67.2	1	inhibition at 1 µM (Gli1 mRNA): 14.7%
C=CCn1c(SCC(=O)c2ccc(C)cc2)nc2sc3c(c2c1=O)CCCC3 [HI612]	–	–	–	pEC50 [2]: < 5.00
C=C(C)Cn1c(SCC(=O)c2cccs2)nc2sccc2c1=O [JEH-1-054]	5.96	50.4	>50	inhibition at 1 µM (Gli1 mRNA): 19.6%
CCn1c(SCC(=O)c2ccc(Br)cc2)nc2sc3c(c2c1=O)CCC3 [HI2863]	–	–	–	pEC50 [2]: < 5.00
C=C(C)Cn1c(SCC(=O)c2cccs2)nc2cnccc2c1=O [JEH-2-088]	4.85	24.2	–	–
C=C(C)Cn1c(SCC(=O)c2cccs2)nc2sc3c(c2c1=O)CCOC3 [JEH-2-120-1]	4.52	82.9	–	–
C=CCn1c(SCC(=O)O)nc2sc3c(c2c1=O)CCCC3 [HI918]	–	–	–	pEC50 [2]: < 5.00

Structure (SMILES)	pEC50 [1]	inhibition at 10 µM (Gli1 mRNA) [%]	ZF Phenotype EC100 (zebrafish embryos) [µM]	other results
CCn1c(SCC(=O)c2ccccc2)nc2sc3c(c2c1=O)CCC3 [HI598]	–	–	–	pEC50 [2]: < 5.00
Cc1ccc(CSc2nc3sccc3c(=O)n2C2CC2)cc1 [JEH-1-190-3]	5.30	–	>50	–
C=C(C)Cn1c(SCC(=O)c2cccs2)nc2sc3ccccc3c2c1=O [JEH-4-006]	< 4.30	79.3	–	pIC50 (PDE4D3): < 4.00; inhibition at 1 µM (Gli1 mRNA): 14.3%; pEC50 (Gli1 mRNA; read-out: C3H10T1/2 qPCR, Gh1 mRNA EC50): 5.37
C=C(C)Cn1c(SCC(=O)c2cccs2)nc2sc3c(c2c1=O)CCN(C(=O)c1ccco1)C3 [JEH-2-105]	–	54.9	–	–
O=C(CSc1nc2sccc2c(=O)n1C1CC1)c1cccs1 [JEH-1-065-2]	5.96	–	10	–
CCCN1CCc2c(sc3nc(SCC(=O)c4ccccc4)n(C4CC4)c(=O)c23)C1 [KYK-1-100]	5.33	–	>50	–
O=C(CSc1nc2sc3c(c2c(=O)n1C1CC1)CCN(C(=O)c1ccco1)C3)c1ccccc1 [KYK-1-75]	5.44	–	>50	pIC50 (PDE4D3): 5.19
CCn1c(SCC(=O)c2ccccc2)nc2sc(C)c(C)c2c1=O [HI864]	–	–	–	pEC50 [2]: < 5.00
C=C(C)Cn1c(SCC(=O)N2CCCC(C)C2)nc2sc3c(c2c1=O)CCCC3 (centres unmarked) [JEH-3-120-1]	–	106	–	inhibition at 1 µM (Gli1 mRNA): 28.7%
O=C(CSc1nc2sc3c(c2c(=O)n1C1CC1)CCNC3)c1ccccc1 [KYK-1-57]	5.07	–	>50	–
CC(C)Cn1c(SCC(=O)c2cccs2)nc2sc3c(c2c1=O)CCCC3 [JEH-3-038-2]	–	102	–	inhibition at 1 µM (Gli1 mRNA): 27.8%
O=C(CSc1nc2sccc2c(=O)n1CC1CC1)c1cccnc1 [JEH-2-022-2]	5.50	–	25	–
C=C(C)Cn1c(SCC(=O)c2cccs2)nc2sc3c(c2c1=O)CCNC3 [JEH-1-064]	5.15	64.1	>50	–
CN1CCc2c(sc3nc(SCC(=O)c4ccccc4)n(C4CC4)c(=O)c23)C1 [KYK-1-76]	5.29	–	>50	–
CC(C)(O)Cn1c(SCC(=O)c2cccs2)nc2sc3c(c2c1=O)CCCC3 [JEH-3-038-3]	–	14.8	–	inhibition at 1 µM (Gli1 mRNA): 24.4%
O=C(CSc1nc2ncccc2c(=O)n1C1CC1)c1cccs1 [JEH-1-137]	5.48	–	>50	–
